According to ChEMBL document CHEMBL1124489, “Synthesis and thromboxane synthetase inhibitory activity of di- or tetrahydrobenzo[b]thiophenecarboxylic acid derivatives” (J Med Chem, 1989):

Legend:
Oryctolagus cuniculus = experiment: Protection against sodium arachidonate induced sudden death in rabbit, 1 hr after peroral administration; assay type: functional; settings: po
[1] = biological target: T1, Thromboxane-A synthase (Rattus norvegicus) (UniProt P49430); experiment: Inhibition of rat serum thromboxane A2 synthetase after 2 hr of oral administration of compound
T1 sequence (whole entry): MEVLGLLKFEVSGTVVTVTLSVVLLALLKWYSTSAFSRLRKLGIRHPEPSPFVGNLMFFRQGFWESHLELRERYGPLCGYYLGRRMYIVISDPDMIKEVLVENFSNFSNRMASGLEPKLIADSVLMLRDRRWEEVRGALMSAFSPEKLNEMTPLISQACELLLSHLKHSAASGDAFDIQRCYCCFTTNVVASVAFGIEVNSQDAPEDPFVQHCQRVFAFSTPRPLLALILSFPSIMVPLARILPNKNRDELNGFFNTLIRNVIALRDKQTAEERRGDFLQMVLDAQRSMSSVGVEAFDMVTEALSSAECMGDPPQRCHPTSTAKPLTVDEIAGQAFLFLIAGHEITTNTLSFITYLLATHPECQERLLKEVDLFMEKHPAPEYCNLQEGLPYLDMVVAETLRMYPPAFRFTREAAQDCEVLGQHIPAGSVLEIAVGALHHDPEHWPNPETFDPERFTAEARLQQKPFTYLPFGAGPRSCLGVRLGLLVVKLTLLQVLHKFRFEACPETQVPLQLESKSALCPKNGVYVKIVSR

Thromboxane-A synthase = biological target: T2, Thromboxane-A synthase (Homo sapiens, UniProt P24557); experiment: Inhibition of platelet microsomal thromboxane A synthetase in humans
T2 sequence (P24557 whole entry): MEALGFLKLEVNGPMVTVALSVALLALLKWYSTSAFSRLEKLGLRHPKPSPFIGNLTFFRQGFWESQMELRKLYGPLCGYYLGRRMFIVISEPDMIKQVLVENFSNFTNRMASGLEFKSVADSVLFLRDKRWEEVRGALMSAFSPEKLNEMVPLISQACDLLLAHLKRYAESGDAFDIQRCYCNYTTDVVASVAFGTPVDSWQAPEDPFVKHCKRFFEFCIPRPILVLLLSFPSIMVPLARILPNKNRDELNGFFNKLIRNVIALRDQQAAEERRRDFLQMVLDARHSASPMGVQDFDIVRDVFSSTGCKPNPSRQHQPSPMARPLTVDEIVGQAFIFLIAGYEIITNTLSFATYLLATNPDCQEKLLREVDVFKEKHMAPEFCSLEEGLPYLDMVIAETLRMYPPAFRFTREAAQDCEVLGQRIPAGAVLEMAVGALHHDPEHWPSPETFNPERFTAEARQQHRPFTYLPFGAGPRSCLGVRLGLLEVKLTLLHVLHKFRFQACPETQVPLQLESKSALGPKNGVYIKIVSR

[2] = biological target: Thromboxane-A synthase (Oryctolagus cuniculus); experiment: Inhibition of thromboxane A2 synthetase
[3] = biological target: T1, Thromboxane-A synthase (Rattus norvegicus); settings: Serum

SMILES | ED50 (Oryctolagus cuniculus) | ID50 [1] | IC50 (Thromboxane-A synthase) | IC50 [2] | ID50 [3]
O=C(O)C1=Cc2sc(Cn3ccnc3)cc2CC1 [IMITRODAST] | 0.43 µmol/kg | 0.064 µmol/kg | 6 nM |  | 
O=C(O)C1CCc2cc(Cn3ccnc3)sc2C1 (centres undefined) | 0.9 µmol/kg | 0.027 µmol/kg | 20 nM | 26 nM | 
O=C(O)c1ccc(OCCn2ccnc2)cc1 [DAZOXIBEN] | 3.17 µmol/kg |  |  |  | 0.468 µmol/kg
